Values quoted from earlier work in US5032582A, “Method for treating fungal infections with amphotericin B/cholesterol sulfate composition” (Liposome Technology, Inc., priority 1989, dated 1991).

Conditions: in vivo

## CC(C)CCC[C@@H](C)[C@H]1CC[C@H]2[C@@H]3CC=C4C[C@@H](OS(=O)(=O)[O-])CC[C@]4(C)[C@H]3CC[C@]12C.[Na+] [cholesterol sulfate, cholesterol 3-sulphate, sodium salt]
  toxicity: no known toxicity
